assay: method code SF-AS, from DOI: 10.1080/02772249909358822

| SMILES | logP |
| --- | --- |
| COC(=O)c1oc2ccccc2c1C(C#N)=NOP(=O)(OC(C)C)OC(C)C | 1.36 |
| CCOP(=S)(OCC)ON=C(C#N)c1ccc(Cl)cc1 | 0.47 |
| COP(=S)(OC)ON=C(C#N)c1csc2ccccc12 | 1.94 |
| CC(C)OP(=O)(ON=C(C#N)c1ccc(F)cc1)OC(C)C | -0.43 |
| CC(C)OP(=O)(O/N=C(/C#N)c1ccccc1)OC(C)C | 0.06 |
| COP(=O)(OC)ON=C(C#N)c1ccc(F)cc1 | -1.08 |
| CCCCOP(=O)(OCCCC)ON=C(C#N)c1csc2ccccc12 | 2.73 |
| COP(=O)(OC)O/N=C(/C#N)c1ccccc1 | -1.01 |
| CCCOP(=O)(OCCC)ON=C(C#N)c1csc2ccccc12 | 1.67 |
| COc1ccc(C(C#N)=NOP(=S)(OC(C)C)OC(C)C)cc1OC | 0.47 |
| CCOP(=O)(OCC)ON=C(C#N)c1csc2ccccc12 | 0.56 |
| CCOP(=S)(OCC)ON=C(C#N)c1ccc(OC)c(OC)c1 | -0.19 |
| CC(C)OP(=O)(ON=C(C#N)c1ccc(Cl)cc1)OC(C)C | -0.2 |
| CC(C)OP(=S)(O/N=C(/C#N)c1ccccc1)OC(C)C | 2.07 |
| CCOP(=S)(OCC)ON=C(C#N)c1csc2ccccc12 | 2.56 |
| COc1ccc(C(C#N)=NOP(=O)(OC(C)C)OC(C)C)cc1OC | -0.38 |
| CCOP(=S)(OCC)ON=C(C#N)c1ccc(F)cc1 | 0.35 |
| CC(C)OP(=O)(ON=C(C#N)c1csc2ccccc12)OC(C)C | 1.56 |
| COP(=O)(OC)ON=C(C#N)c1csc2ccccc12 | 0.76 |

Source: the SangsterLogP compilation
